Results as given in ChEMBL document CHEMBL5244211, “Current anti-diabetic agents and their molecular targets: A review” (Eur J Med Chem, 2018).

Key:
[1] = target: T1, Fructose-1,6-bisphosphatase 1 (Homo sapiens, UniProt P09467); assay: Inhibition of FBPase (unknown origin)
T1 sequence (P09467 whole entry): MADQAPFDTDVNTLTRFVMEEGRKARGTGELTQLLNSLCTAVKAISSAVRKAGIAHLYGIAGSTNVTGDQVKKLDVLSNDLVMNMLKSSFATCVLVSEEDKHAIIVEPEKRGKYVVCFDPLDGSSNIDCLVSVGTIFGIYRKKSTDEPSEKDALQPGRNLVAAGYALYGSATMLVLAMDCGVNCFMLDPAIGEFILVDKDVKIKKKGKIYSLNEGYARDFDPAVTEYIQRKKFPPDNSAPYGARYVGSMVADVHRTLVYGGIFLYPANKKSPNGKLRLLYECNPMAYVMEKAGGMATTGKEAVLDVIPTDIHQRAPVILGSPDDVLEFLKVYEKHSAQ

[2] = target: T2, Free fatty acid receptor 4 (Homo sapiens, UniProt Q5NUL3); assay: Agonist activity at FFA4 (unknown origin) expressed in CHO-K1 cells by BRET assay; type: cell-based
T2 sequence (Q5NUL3 whole entry): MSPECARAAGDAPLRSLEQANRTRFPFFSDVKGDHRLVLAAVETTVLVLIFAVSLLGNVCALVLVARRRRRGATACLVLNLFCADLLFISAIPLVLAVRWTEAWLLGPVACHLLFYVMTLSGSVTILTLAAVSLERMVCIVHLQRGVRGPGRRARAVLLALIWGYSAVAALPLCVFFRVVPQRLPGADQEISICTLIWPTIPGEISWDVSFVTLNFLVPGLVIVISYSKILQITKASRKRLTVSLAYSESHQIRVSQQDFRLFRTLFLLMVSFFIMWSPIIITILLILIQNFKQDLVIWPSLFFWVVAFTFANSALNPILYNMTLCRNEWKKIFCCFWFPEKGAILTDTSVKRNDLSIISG

Dipeptidyl peptidase 4 = Dipeptidyl peptidase 4 (Homo sapiens, UniProt P27487); assay: Inhibition of DPP4 (unknown origin)
Chain of Dipeptidyl peptidase 4 (P27487 whole entry): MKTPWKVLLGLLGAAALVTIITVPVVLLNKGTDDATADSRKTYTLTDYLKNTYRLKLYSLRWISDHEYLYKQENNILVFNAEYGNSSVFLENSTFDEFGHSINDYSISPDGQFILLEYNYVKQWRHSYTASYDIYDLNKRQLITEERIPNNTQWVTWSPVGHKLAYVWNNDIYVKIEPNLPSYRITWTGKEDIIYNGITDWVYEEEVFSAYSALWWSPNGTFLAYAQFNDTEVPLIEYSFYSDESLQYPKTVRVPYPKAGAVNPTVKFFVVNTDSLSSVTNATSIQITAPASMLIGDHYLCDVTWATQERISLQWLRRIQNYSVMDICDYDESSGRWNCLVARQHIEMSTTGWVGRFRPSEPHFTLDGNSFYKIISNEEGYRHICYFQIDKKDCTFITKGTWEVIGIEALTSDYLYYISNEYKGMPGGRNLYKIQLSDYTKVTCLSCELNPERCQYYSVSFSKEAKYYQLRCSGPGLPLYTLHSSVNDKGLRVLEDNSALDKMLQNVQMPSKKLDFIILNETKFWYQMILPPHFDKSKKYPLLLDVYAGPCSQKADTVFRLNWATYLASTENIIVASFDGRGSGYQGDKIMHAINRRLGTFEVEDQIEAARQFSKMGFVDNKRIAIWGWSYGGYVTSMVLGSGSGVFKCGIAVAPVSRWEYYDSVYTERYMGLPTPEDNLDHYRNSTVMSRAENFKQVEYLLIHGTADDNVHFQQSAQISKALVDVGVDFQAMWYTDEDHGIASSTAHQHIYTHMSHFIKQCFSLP

[3] = Inhibition of bovine kidney ALR1 in presence of NADPH by UV spectrophotometric analysis; type: tissue-based, Bos taurus
[4] = Inhibition of calf lens ALR2 using glyceraldehyde as substrate incubated for 5 mins in presence of NADPH by UV-spectrophotometric analysis; type: tissue-based, Bos taurus
Glucagon receptor [5] = target: Glucagon receptor (Homo sapiens, UniProt P47871); assay: Inhibition of human GCGR receptor
Chain of Glucagon receptor (Homo sapiens, UniProt P47871) (P47871 whole entry): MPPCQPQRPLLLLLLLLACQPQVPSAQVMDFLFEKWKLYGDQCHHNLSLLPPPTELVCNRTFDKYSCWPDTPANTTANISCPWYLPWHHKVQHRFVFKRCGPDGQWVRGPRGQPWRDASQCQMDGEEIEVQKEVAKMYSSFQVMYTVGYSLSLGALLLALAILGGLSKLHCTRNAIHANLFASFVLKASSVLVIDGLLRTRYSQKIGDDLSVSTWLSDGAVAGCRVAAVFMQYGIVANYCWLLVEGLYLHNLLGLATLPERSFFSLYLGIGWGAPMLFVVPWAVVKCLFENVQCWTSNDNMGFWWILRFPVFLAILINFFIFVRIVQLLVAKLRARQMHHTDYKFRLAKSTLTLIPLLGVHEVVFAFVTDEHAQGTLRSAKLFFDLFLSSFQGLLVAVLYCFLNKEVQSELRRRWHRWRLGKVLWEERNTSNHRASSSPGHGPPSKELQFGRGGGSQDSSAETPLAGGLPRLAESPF

[6] = target: Free fatty acid receptor 1 (Homo sapiens, UniProt O14842); assay: Agonist activity at human GPR40 expressed in HEK293 cells incubated for 18 to 24 hrs by HTRF assay; type: cell-based
Chain of Free fatty acid receptor 1 (O14842 whole entry): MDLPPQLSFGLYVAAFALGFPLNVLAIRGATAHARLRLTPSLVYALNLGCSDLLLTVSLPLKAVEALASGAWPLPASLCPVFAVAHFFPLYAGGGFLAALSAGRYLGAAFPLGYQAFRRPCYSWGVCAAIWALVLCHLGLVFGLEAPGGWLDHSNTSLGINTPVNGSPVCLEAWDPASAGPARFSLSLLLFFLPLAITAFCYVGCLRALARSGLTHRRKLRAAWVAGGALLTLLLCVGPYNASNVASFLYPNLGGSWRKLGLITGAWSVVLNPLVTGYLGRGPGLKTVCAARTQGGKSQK

[7] = target: T3, Glucose-dependent insulinotropic receptor (Homo sapiens, UniProt Q8TDV5); assay: Agonist activity at human GPR119 expressed in CHO-K1 cells assessed as increase in intracellular cAMP level incubated for 5 mins by fluorescence analysis; type: cell-based
T3 sequence (Q8TDV5 whole entry): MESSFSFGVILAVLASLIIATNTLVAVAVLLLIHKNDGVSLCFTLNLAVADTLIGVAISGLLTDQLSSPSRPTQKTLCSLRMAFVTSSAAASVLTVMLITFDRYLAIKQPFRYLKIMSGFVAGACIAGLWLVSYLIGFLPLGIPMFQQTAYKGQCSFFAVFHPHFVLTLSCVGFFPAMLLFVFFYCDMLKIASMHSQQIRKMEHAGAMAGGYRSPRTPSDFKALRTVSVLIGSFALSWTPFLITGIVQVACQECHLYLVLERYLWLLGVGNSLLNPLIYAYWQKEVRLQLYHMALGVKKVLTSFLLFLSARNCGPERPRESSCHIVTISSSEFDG

Glucagon receptor [8] = target: Glucagon receptor (Rattus norvegicus, UniProt P30082); assay: Displacement of [125I]-glucagon from GCGR in Sprague-Dawley rat liver assessed as decrease in glucagon-stimulated CAMP production incubated for 45 mins by scintillation counter analysis; type: tissue-based
Chain of Glucagon receptor (Rattus norvegicus, UniProt P30082) (P30082 whole entry): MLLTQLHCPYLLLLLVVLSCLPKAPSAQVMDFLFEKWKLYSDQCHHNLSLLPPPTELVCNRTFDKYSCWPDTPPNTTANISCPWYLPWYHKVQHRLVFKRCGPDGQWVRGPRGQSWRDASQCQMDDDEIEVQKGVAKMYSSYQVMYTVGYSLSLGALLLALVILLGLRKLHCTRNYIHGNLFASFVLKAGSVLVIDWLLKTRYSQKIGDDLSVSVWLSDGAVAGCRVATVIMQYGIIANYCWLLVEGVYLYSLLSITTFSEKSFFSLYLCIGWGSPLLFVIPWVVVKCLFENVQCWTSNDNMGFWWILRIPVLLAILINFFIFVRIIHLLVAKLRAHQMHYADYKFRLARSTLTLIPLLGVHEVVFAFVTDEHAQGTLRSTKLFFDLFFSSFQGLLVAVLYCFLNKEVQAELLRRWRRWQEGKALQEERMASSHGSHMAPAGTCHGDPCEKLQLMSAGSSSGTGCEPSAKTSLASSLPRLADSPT

Homo sapiens = species on record: Homo sapiens; assay: Selectivity ratio of IC50 for inhibition of TC-PTP (unknown origin) to IC50 for inhibition of PTP1B (unknown origin)
[9] = target: T4, Tyrosine-protein phosphatase non-receptor type 1 (Homo sapiens, UniProt P18031); assay: Inhibition of PTP1B (unknown origin) using pNPP as substrate for 2 mins by spectroscopic analysis
T4 sequence (P18031 whole entry): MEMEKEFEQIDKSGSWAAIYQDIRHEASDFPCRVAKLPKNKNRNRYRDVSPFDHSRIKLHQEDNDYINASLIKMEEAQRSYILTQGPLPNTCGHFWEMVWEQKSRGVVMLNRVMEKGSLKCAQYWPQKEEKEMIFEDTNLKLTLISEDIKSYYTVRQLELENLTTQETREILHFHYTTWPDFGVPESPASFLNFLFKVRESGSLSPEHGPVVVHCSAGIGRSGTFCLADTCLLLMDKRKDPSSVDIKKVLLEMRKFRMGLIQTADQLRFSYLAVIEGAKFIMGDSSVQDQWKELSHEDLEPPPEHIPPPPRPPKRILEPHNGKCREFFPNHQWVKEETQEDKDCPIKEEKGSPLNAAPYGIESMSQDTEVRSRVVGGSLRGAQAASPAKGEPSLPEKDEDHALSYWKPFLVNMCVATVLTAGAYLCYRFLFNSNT

[10] = target: T4, Tyrosine-protein phosphatase non-receptor type 1; assay: Competitive inhibition of PTP1B (unknown origin) assessed as inhibition constant using pNPP as substrate by Michaelis-Menten based analysis
[11] = target: T3, Glucose-dependent insulinotropic receptor; assay: Agonist activity at human GPR119 expressed in HEK293S cells assessed as increase in intracellular cAMP level incubated for 45 mins by HTRF analysis; type: cell-based
[12] = target: T2, Free fatty acid receptor 4; assay: Agonist activity at human GPR120 expressed in CHO cells assessed as intracellular phosphorylated ERK incubated for 16 to 18 hrs by AlphaScreen SureFire assay; type: cell-based
[13] = target: T5, Free fatty acid receptor 4 (Mus musculus) (UniProt Q7TMA4); assay: In vivo agonist activity at GPR120 in C57BL/6 mouse assessed as reduction in glucose AUC levels at 30 mg/kg,po and measured upto 120 mins by OGTT test; type: functional, organism-based; parameters: scale not given: the % may be the effect or the level left
T5 sequence (whole entry): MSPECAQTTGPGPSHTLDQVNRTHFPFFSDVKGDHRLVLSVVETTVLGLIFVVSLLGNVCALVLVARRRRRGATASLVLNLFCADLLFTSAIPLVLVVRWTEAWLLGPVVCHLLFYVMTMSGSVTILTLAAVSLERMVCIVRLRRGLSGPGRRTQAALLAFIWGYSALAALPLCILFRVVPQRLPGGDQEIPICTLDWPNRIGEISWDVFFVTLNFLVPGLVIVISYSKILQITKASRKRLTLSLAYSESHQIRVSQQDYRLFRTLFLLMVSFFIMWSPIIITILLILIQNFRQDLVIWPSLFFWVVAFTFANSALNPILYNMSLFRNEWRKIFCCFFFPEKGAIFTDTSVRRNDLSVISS

[14] = target: T6, Fructose-1,6-bisphosphatase 1 (Rattus norvegicus) (UniProt P19112); assay: Inhibition of FBPase in rat Primary hepatocyte assessed as reduction in glucose production at 160 uM; type: cell-based
T6 sequence (whole entry): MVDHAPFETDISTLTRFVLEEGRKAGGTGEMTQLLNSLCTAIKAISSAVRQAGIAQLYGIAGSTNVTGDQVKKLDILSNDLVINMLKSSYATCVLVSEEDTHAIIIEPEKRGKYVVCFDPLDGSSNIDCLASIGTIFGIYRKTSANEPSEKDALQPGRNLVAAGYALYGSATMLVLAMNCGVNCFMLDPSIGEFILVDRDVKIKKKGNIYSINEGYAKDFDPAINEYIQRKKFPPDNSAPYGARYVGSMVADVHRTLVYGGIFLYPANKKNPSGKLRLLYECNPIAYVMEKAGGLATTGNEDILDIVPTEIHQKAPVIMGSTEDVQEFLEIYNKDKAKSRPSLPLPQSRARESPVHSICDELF

[15] = target: T7, Fructose-1,6-bisphosphatase 1 (Rattus norvegicus, UniProt P19112); assay: Inhibition of FBPase in rat Primary hepatocyte assessed as reduction in glucose production; type: cell-based
T7 sequence (P19112 whole entry): T6 sequence (whole entry)

Cc1ccc(-c2nnc(-c3cccc(NC(=O)CCCCCCO)c3)o2)cc1
IC50 [1]: 1320 nM

O=C(O)CCCc1ccc(OCC2=C(c3ccc(C4CC4)cc3)CCCC2)cc1
EC50 [2]: 50 nM

CC#CCn1c(N2CCC[C@@H](N)C2)cc(=O)n(Cc2nc(C)c3cc(C)ccc3n2)c1=O
IC50 (Dipeptidyl peptidase 4): 5.78 nM

CCCC(CCC)C(=O)O [VALPROIC ACID]
IC50 [3]: 57400 nM

O=C1NC(=O)[C@@]2(CCOc3ccc(F)cc32)N1 [SORBINIL]
IC50 [4]: 3.1 nM

Cc1cc(O[C@@H](CCC(F)(F)F)c2ccc(C(=O)NCCC(=O)O)cc2)cc(C)c1-c1ccc(C(C)(C)C)cc1 [ADOMEGLIVANT]
Ki (Glucagon receptor [5]): 6.6 nM

COc1cc(N2CCC(Oc3ccc(N4N=C(C(F)(F)F)[C@@H](C)C4CC(=O)O)cc3)[C@H](N)C2)c(Cl)cn1 (some centres undefined)
EC50 [6]: 71 nM

O=c1[nH]ncn1-c1ccc(-c2ccc(N3CCNCC3)nc2)cc1
EC50 [7]: 2.8 nM

Cc1ccc(N2C(=O)/C(=C/c3cn(-c4ccccc4)nc3-c3ccc([N+](=O)[O-])cc3)SC2=S)cc1
IC50 [4]: 2340 nM

Cc1ccc(-c2nn(-c3ccccc3)cc2/C=C2\SC(=S)N(c3cccc(Br)c3)C2=O)cc1
IC50 [4]: 1220 nM

CCCc1c(C(C)C)cc(C(C)C)c([C@@H](C)O)c1-c1ccc(F)cc1
IC50 (Glucagon receptor [8]): 110 nM

C[C@H](CCC(=O)O)[C@H]1CCC2C3CC=C4C(C)(C)c5c(cnn5-c5ccc(F)cc5)C[C@]4(C)C3CC[C@@]21C (some centres undefined)
Ratio IC50 (Homo sapiens): 11
IC50 [9]: 420 nM
Ki [10]: 260 nM

CSc1ccc(COc2ccc(-c3ncc(C)c(N4CCN(c5ncc(OCC=C(C)C)cn5)CC4)n3)cc2)cc1
EC50 [11]: 24 nM

O=C(O)[C@H]1C[C@@H]1CCC12CCC(c3cccc(Oc4ccccc4)c3)(CC1)O2
EC50 [12]: 220 nM
Activity [13]: 60%

Cc1ccc(-c2nnc(-c3cccc(NC(=O)CCCCc4nnn[nH]4)c3)o2)cc1
inhibition [14]: 42%
IC50 [15]: 167000 nM
